In the CheMixHub viscosity set:

Experiment: xn = mol fraction of the nth substance listed
Conditions: 101 kPa

COc1ccccc1O + CNc1ccccc1
303.15 K
Conditions | viscosity [mPa·s]
x2 = 0.1 | 4
x2 = 0.2 | 3.72
x2 = 0.3 | 3.36
x2 = 0.4 | 3.03
x2 = 0.5 | 2.76
x2 = 0.6 | 2.44
x2 = 0.7 | 2.22
x2 = 0.8 | 1.99
x2 = 0.9 | 1.72

C1COCCO1 + CCCCCCCC
viscosity [mPa·s]
Conditions | x1 = 0.1324 | x1 = 0.2242 | x1 = 0.3234 | x1 = 0.4124 | x1 = 0.5114 | x1 = 0.6124 | x1 = 0.7332 | x1 = 0.8231 | x1 = 0.9222
308.15 K | 0.453 | 0.462 | 0.478 | 0.503 | 0.542 | 0.596 | 0.68 | 0.766 | 0.881
313.15 K | 0.431 | 0.44 | 0.452 | 0.476 | 0.512 | 0.561 | 0.64 | 0.717 | 0.828
318.15 K | 0.41 | 0.417 | 0.429 | 0.45 | 0.484 | 0.529 | 0.601 | 0.672 | 0.776

BrCCBr + ClCCCl
298.15 K
Conditions | viscosity [mPa·s]
x2 = 0.175 | 1.421
x2 = 0.3753 | 1.216
x2 = 0.5066 | 1.117
x2 = 0.6547 | 1.006
x2 = 0.7793 | 0.9179
x2 = 0.8501 | 0.8648

Brc1ccccc1 + CN1CCCC1=O
viscosity [mPa·s]
Conditions | x2 = 0.1084 | x2 = 0.2149 | x2 = 0.3193 | x2 = 0.4219 | x2 = 0.5226 | x2 = 0.6215 | x2 = 0.7186 | x2 = 0.8141 | x2 = 0.9078
303.15 K | 1.068 | 1.146 | 1.22 | 1.284 | 1.344 | 1.396 | 1.441 | 1.484 | 1.522
308.15 K | 1.023 | 1.089 | 1.148 | 1.201 | 1.25 | 1.29 | 1.326 | 1.358 | 1.382
313.15 K | 0.9408 | 1.005 | 1.061 | 1.113 | 1.159 | 1.199 | 1.236 | 1.268 | 1.295
318.15 K | 0.8512 | 0.9073 | 0.9593 | 1.008 | 1.052 | 1.09 | 1.126 | 1.157 | 1.184

Brc1ccccc1 + c1ccccc1
Conditions | viscosity [mPa·s]
298.15 K, x1 = 0.0867 | 0.636
298.15 K, x1 = 0.116 | 0.649
298.15 K, x1 = 0.8 | 0.96
303.15 K, x1 = 0.086 | 0.61
303.15 K, x1 = 0.176 | 0.653
303.15 K, x1 = 0.268 | 0.7
303.15 K, x1 = 0.362 | 0.742
303.15 K, x1 = 0.46 | 0.785
303.15 K, x1 = 0.561 | 0.827
303.15 K, x1 = 0.665 | 0.867
303.15 K, x1 = 0.774 | 0.909
303.15 K, x1 = 0.884 | 0.951
308.15 K, x1 = 0.0867 | 0.558
308.15 K, x1 = 0.116 | 0.568
318.15 K, x1 = 0.0867 | 0.492
318.15 K, x1 = 0.116 | 0.504
323.15 K, x1 = 0.0867 | 0.461
323.15 K, x1 = 0.116 | 0.47
323.15 K, x1 = 0.8 | 0.711

Brc1ccccc1 + CCCCOC(C)=O
viscosity [mPa·s]
Conditions | 298.15 K | 308.15 K
x2 = 0.0489 | 0.919 | 0.88
x2 = 0.1488 | 0.737 | 0.746
x2 = 0.2514 | 0.615 | 0.649
x2 = 0.3499 | 0.54 | 0.584
x2 = 0.4493 | 0.495 | 0.541
x2 = 0.4965 | 0.482 | 0.526
x2 = 0.5512 | 0.474 | 0.515
x2 = 0.6501 | 0.474 | 0.505
x2 = 0.7497 | 0.496 | 0.51
x2 = 0.8499 | 0.542 | 0.53
x2 = 0.9226 | 0.595 | 0.556

C#Cc1ccccc1 + CCCCCOC(C)=O
Conditions | viscosity [mPa·s]
298.15 K, x1 = 0.0691 | 0.791

CCCCCC(=O)[O-].C[NH2+]c1ccccc1 + CN(C)C=O
viscosity [mPa·s]
Conditions | x1 = 0.004889 | x1 = 0.008423 | x1 = 0.01411 | x1 = 0.01792 | x1 = 0.02131 | x1 = 0.02717 | x1 = 0.0305 | x1 = 0.03458
293.15 K | 0.957 | 0.969 | 0.992 | 1.009 | 1.026 | 1.052 | 1.072 | 1.099
298.15 K | 0.916 | 0.926 | 0.946 | 0.961 | 0.975 | 0.998 | 1.016 | 1.038
303.15 K | 0.879 | 0.887 | 0.905 | 0.918 | 0.93 | 0.95 | 0.966 | 0.985
308.15 K | 0.846 | 0.854 | 0.869 | 0.881 | 0.891 | 0.909 | 0.923 | 0.94
313.15 K | 0.817 | 0.824 | 0.837 | 0.847 | 0.857 | 0.873 | 0.884 | 0.899
318.15 K | 0.791 | 0.797 | 0.809 | 0.818 | 0.826 | 0.84 | 0.85 | 0.863
323.15 K | 0.767 | 0.772 | 0.784 | 0.791 | 0.798 | 0.812 | 0.82 | 0.831

N#C[S-].[NH4+] + CC(=O)[O-].CC[n+]1ccn(C)c1
viscosity [mPa·s]
Conditions | x1 = 0.02 | x1 = 0.1002 | x1 = 0.1998 | x1 = 0.2514 | x1 = 0.3001 | x1 = 0.3199 | x1 = 0.3413
298.15 K | 136.6 | 160.2 | 190.7 | 198.6 | 194.6 | 195.4 | 196.4
303.15 K | 100.9 | 117.6 | 139.3 | 144.4 | 141.9 | 142.8 | 143.6
308.15 K | 76.44 | 88.53 | 104 | 107.4 | 105.9 | 106.6 | 107.3
313.15 K | 59.28 | 68.07 | 79.27 | 81.46 | 80.5 | 81.14 | 81.73
318.15 K | 46.92 | 53.32 | 61.47 | 62.88 | 62.26 | 62.81 | 63.32
323.15 K | 37.79 | 42.45 | 48.4 | 49.28 | 48.89 | 49.35 | 49.79
